The text below walks through data of patent US10508077B2 (FORMA Therapeutics, Inc., priority 2015, dated 2019).

Assay [1] has as its target T1, Recombinant N-terminal GST tag full-length human HDAC8 (Homo sapiens, UniProt Q9BY41).
T1 construct: Recombinant N-terminal GST tag full-length human HDAC8; purchased SignalChem H90-30G-1000; host or cells: Sf9 insect cells (baculovirus)
T1 sequence (Q9BY41 1-377): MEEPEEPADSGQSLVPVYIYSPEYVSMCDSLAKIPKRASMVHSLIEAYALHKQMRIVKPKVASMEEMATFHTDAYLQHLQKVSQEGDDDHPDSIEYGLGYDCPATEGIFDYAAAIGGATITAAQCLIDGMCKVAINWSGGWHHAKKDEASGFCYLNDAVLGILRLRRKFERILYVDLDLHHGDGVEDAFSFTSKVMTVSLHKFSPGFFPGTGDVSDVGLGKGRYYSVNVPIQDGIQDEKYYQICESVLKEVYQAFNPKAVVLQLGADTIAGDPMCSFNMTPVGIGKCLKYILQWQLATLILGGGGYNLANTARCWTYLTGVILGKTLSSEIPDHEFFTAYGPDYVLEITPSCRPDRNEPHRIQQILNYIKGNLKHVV
The assay can be described thus: HDAC8 probe binding assay, time resolved fluorescence (TRF). The note with it: fluorescein labeled pan-HDAC inhibitor probe, 16 hours incubation, compounds listed under IC50 range headings. As for the experimental part: The HDAC8 probe binding assay was performed using a time resolved fluorescence (TRF) assay format. Recombinant N-terminal GST tag full-length human HDAC8 was expressed and purified from baculovirus in Sf9 insect cells (SignalChem, #H90-30G-1000), Each assay was performed in 1536 black well microplates (Corning, #3936) in a final volume of 4 μL in assay buffer containing 50 mM HEPES (pH 7.5), 50 mM KCl, 50 mM NaCl, 0.5 mM GSH (L-Glutathione reduced, Sigma #G4251), 0.03% BGG (0.22 μM filtered, Sigma, #G7516-25G), and 0.01% Triton X-100 (Sigma, #T9284-10L). 20 nL of 10-point, 3-fold serial dilution in DMSO was pre-dispensed into respective wells of 1536 assay plates for a final test concentration range of 25 μM to 1.3 nM respectively. The final concentration in the assay of HDAC8 and probe (a fluorescein labeled pan-HDAC inhibitor) was 2.5 nM and 1.5 nM respectively. 2 μL of 2× probe and 2× anti-GST Terbium (Cisbio, #61GSTXLB) was added to assay plates followed by 2 μL of 2× HDAC8. Plates were incubated for 16 hours at room temperature before time resolved fluorescence was read on the Envision (Excitation at 340 nm, and Emission at 485 nm and 535 nm, Perkin Elmer).
Data from HDAC8 Assays were reported as percent inhibition (inh) compared with control wells based on the following equation: % inh=1−((FLU−AveLow)/(AveHigh−AveLow)) where FLU=measured time resolved fluorescence. AveLow=average time resolved fluorescence of no enzyme control (n=32). AveHigh=average time resolved fluorescence of DMSO control (n=32). IC50 values were determined by curve fitting of the standard 4 parameter logistic fitting algorithm included in the Activity Base software package: IDBS XE Designer Model205. Data is fitted using the Levenburg Marquardt algorithm.

For assay [2], the target named is T2, Full length human recombinant HDAC8 protein (Homo sapiens, UniProt Q9BY41).
T2 construct: Full length human recombinant HDAC8 protein was expressed in baculoviral system; made in house
T2 sequence (Q9BY41 1-377): T1 sequence (Q9BY41 1-377)
As to the kind of experiment: In vitro histone deacetylase assay: enzymatic HDAC8 assay, electrophoretic mobility shift. The following applies: substrate RHKK(Ac)-NH2, 1 nM enzyme, compounds listed under IC50 range headings. The assay is classed as biochemical. The procedure, abridged: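 Readout was microfluidic mobility-shift separation of deacetylated product from fluorescent RHKK(Ac)-NH2 substrate (2 µM), after reaction with 1 nM recombinant full-length human HDAC8 at 25 °C, pH 7.5, stopped with SDS. Twelve 3-fold-spaced concentrations tested; product/sum ratios normalized to controls and fitted with a 4-parameter model for IC50.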

Molecules are shown by their SMILES.

In the case of `O=C(/C=C/c1ccccc1NC(=O)c1cnc(-c2cccnc2)s1)NO` [Example I-76, (E)-N-(2-(3-(hydroxyamino)-3-oxoprop-1-en-1-yl)phenyl)-2-(pyridin-3-yl)thiazole-5-carboxamide], the IC50 in assay [1] was not above 1000 nM; in assay [2], less than 1000 nM.

As for `N#Cc1cccc(CNc2ccccc2/C=C/C(=O)NO)c1` [Example I-45, (E)-3-(2-((3-cyanobenzyl)amino)phenyl)-N-hydroxyacrylamide], the figures for the IC50 in assay [1] and in assay [2] were 1000 to 100000 nM and less than 1000 nM, respectively.

Regarding `O=C(/C=C/c1ccccc1NCc1cccc(N2CCOCC2)c1)NO` [Example I-97, (E)-N-hydroxy-3-(2-((3-morpholinobenzyl)amino)phenyl) acrylamide], the figures for the IC50 in assay [1] and in assay [2] were not above 1000 nM and less than 1000 nM, respectively.

Consider `Cc1cc(C(=O)N2CCN(c3ccccc3/C=C/C(=O)NO)CC2)n(C)n1` [Example I-298, (E)-3-(2-(4-(1,3-dimethyl-1H-pyrazole-5-carbonyl)piperazin-1-yl)phenyl)-N-hydroxyacrylamide], for which the IC50 in assay [1] is not above 1000 nM; in assay [2] it was less than 1000 nM.

For the compound `Cn1ccnc1S(=O)(=O)N1CCN(c2ccccc2/C=C/C(=O)NO)CC1` [Example I-252, (E)-N-hydroxy-3-(2-(4-((1-methyl-1H-imidazol-2-yl)sulfonyl)piperazin-1-yl)phenyl)acrylamide], the IC50 is not above 1000 nM in assay [1] and less than 1000 nM in assay [2].

On to `O=C(/C=C/c1ccccc1NC(=O)c1ccccc1Oc1cccnc1)NO` [Example I-314, (E)-N-(2-(3-(hydroxyamino)-3-oxoprop-1-en-1-yl)phenyl)-2-(pyridin-3-yloxy)benzamide], for which the IC50 was not above 1000 nM in assay [1] and less than 1000 nM in assay [2].

Turning to `Cc1ccc(N2CCN(c3ccccc3/C=C/C(=O)NO)C(=O)C2)cc1` [Example I-533, (E)-N-hydroxy-3-(2-(2-oxo-4-(p-tolyl)piperazin-1-yl)phenyl)acrylamide], the IC50 in assay [1] is not above 1000 nM; in assay [2], less than 1000 nM.

In the case of `CC(=O)NC1CCN(c2ccccc2/C=C/C(=O)NO)C1` (centres unmarked) [Example I-307, (E)-3-(2-(3-acetamidopyrrolidin-1-yl)phenyl)-N-hydroxyacrylamide], the IC50 in assay [1] is not above 1000 nM; in assay [2] it was less than 1000 nM.

For the compound `O=C(/C=C/c1ccccc1NCc1ccc2nccn2c1)NO` [Example I-103, (E)-N-hydroxy-3-(2-((imidazo[1,2-a]pyridin-6-ylmethyl)amino)phenyl)acrylamide], the IC50 in assay [1] is not above 1000 nM; in assay [2], less than 1000 nM.

For the compound `O=C(/C=C/c1ccccc1N1CCC2(CCNCC2)C1)NO` [Example I-115, (E)-3-(2-(2,8-diazaspiro[4.5]decan-2-yl)phenyl)-N-hydroxyacrylamide 2,2,2-trifluoroacetate], the IC50 in assay [1] was not above 1000 nM; in assay [2], less than 1000 nM.

`CC(C)(C)OC(=O)N1CC2(CCCN2c2ccccc2/C=C/C(=O)NO)C1` [Example I-542, tert-butyl (E)-5-(2-(3-(hydroxyamino)-3-oxoprop-1-en-1-yl)phenyl)-2,5-diazaspiro[3.4]octane-2-carboxylate]: the IC50 was not above 1000 nM in assay [1] and less than 1000 nM in assay [2].

As for `O=C(/C=C/c1ccccc1NC(=O)c1cccc(Oc2ccccc2)c1)NO` [Example I-536, (E)-N-(2-(3-(hydroxyamino)-3-oxoprop-1-en-1-yl)phenyl)-3-phenoxybenzamide], the IC50 was not above 1000 nM in assay [1] and less than 1000 nM in assay [2].

For the compound `COc1ccccc1Oc1ccccc1C(=O)Nc1ccccc1/C=C/C(=O)NO` [Example I-304, (E)-N-(2-(3-(hydroxyamino)-3-oxoprop-1-en-1-yl)phenyl)-2-(2-methoxyphenoxy)benzamide], the IC50 in assay [1] was not above 1000 nM; in assay [2] it was less than 1000 nM.

Turning to `O=C(/C=C/c1ccccc1NCc1c[nH]nc1-c1ccc(C(F)(F)F)cc1)NO` [Example I-104], the figures for the IC50 in assay [1] and in assay [2] were not above 1000 nM and less than 1000 nM, respectively.

On to `Cc1cc(C(=O)NC2CCN(c3ccccc3/C=C/C(=O)NO)CC2)n[nH]1` [Example I-134, (E)-N-(1-(2-(3-(hydroxyamino)-3-oxoprop-1-en-1-yl)phenyl)piperidin-4-yl)-5-methyl-1H-pyrazole-3-carboxamide], for which the IC50 in assay [1] is not above 1000 nM; in assay [2], less than 1000 nM.

With `COc1ccc(/C=C/C(=O)NO)c(NC(=O)c2ccccc2Oc2ccc(Cl)cc2F)c1` [II-37, 2-(4-chloro-2-fluorophenoxy)-N-{2-[(1E)-2-(hydroxycarbamoyl)eth-1-en-1-yl]-5-methoxyphenyl}benzamide], the values for the IC50 in assay [1] and in assay [2] were not above 1000 nM and less than 1000 nM, respectively.

In the case of `CC(=O)N1CC2(CCCN2c2ccccc2/C=C/C(=O)NO)C1` [Example I-547, (E)-3-(2-(2-acetyl-2,5-diazaspiro[3.4]octan-5-yl)phenyl)-N-hydroxyacrylamide], the IC50 in assay [1] is not above 1000 nM; in assay [2] it was less than 1000 nM.

For `O=C(/C=C/c1ccccc1NCc1ccc(-c2nnn[nH]2)cc1)NO` [Example I-96, (E)-3-(2-((4-(1H-tetrazol-5-yl)benzyl)amino)phenyl)-N-hydroxyacrylamide], the figures for the IC50 in assay [1] and in assay [2] were not above 1000 nM and less than 1000 nM, respectively.

Take `O=C(/C=C/c1ccccc1NC(=O)[C@H]1C[C@H]1c1ccccc1)NO` [Example I-73, (1S,2R)-N-(2-((E)-3-(hydroxyamino)-3-oxoprop-1-en-1-yl)phenyl)-2-phenylcyclopropane-1-carboxamide]: the IC50 in assay [1] was not above 1000 nM; in assay [2] it was less than 1000 nM.

Turning to `O=C(/C=C/c1ccccc1S(=O)(=O)C1CCN(C(=O)Cc2ccc(Cl)cc2)CC1)NO` [II-29], the IC50 in assay [1] is not above 1000 nM; in assay [2], less than 1000 nM.

Turning to `O=C(/C=C/c1ccncc1NC(=O)c1cccc(C(F)(F)F)c1)NO` [Example I-123, (E)-N-(4-(3-(hydroxyamino)-3-oxoprop-1-enyl)pyridin-3-yl)-3-(trifluoromethyl)benzamide], the IC50 was not above 1000 nM in assay [1] and less than 1000 nM in assay [2].

Regarding `O=C(/C=C/c1ccccc1NC(=O)c1ncsc1Oc1ccccc1)NO` [Example I-539, N-{2-[(1E)-2-(hydroxycarbamoyl)eth-1-en-1-yl]phenyl}-5-phenoxy-1,3-thiazole-4-carboxamide], the IC50 in assay [1] was not above 1000 nM; in assay [2], less than 1000 nM.

For the compound `Cc1ccc(CC(=O)Nc2ccccc2/C=C/C(=O)NO)cc1` [Example I-66, (E)-N-hydroxy-3-(2-(2-(p-tolyl)acetamido)phenyl)acrylamide], the results for the IC50 in assay [1] and in assay [2] were not above 1000 nM and less than 1000 nM, respectively.

For `O=C(/C=C/c1cc(F)ccc1NC(=O)c1ccccc1Oc1ccc(F)cc1)NO` [Example I-555, N-{4-fluoro-2-[(1E)-2-(hydroxycarbamoyl)eth-1-en-1-yl]phenyl}-2-(4-fluorophenoxy)benzamide], in assay [1], the IC50 is not above 1000 nM.

For the compound `CC(C)(C)OC(=O)N1CCCC12CN(c1ccccc1/C=C/C(=O)NO)C2` [Example I-550, tert-butyl (E)-2-(2-(3-(hydroxyamino)-3-oxoprop-1-en-1-yl)phenyl)-2,5-diazaspiro[3.4]octane-5-carboxylate], in assay [1], the IC50 was not above 1000 nM.

In the case of `COc1ccc(Oc2ccccc2C(=O)Nc2ccc(Cl)cc2/C=C/C(=O)NO)cc1` [Example I-573, N-{4-chloro-2-[(1E)-2-(hydroxycarbamoyl)eth-1-en-1-yl]phenyl}-2-(4-methoxyphenoxy)benzamide], the IC50 in assay [1] was not above 1000 nM.

Take `O=C(/C=C/c1c(Cl)cccc1NC(=O)c1ccccc1Oc1ccc(F)cc1)NO` [Example I-563, N-{3-chloro-2-[(1E)-2-(hydroxycarbamoyl)eth-1-en-1-yl]phenyl}-2-(4-fluorophenoxy)benazmide]: in assay [1], the IC50 was not above 1000 nM.
